Results reported in patent US9802962B2, “Tricyclic pyrone compounds reduce amyloid beta aggregates” (priority 2013, dated 2017).

Legend:
ACAT = ACAT inhibition; assay type: biochemical; settings: read-out: half maximal inhibitory concentration (IC50), ACAT
Text: (§1) It has been reported that an induction of cholesterol efflux resulting in a reduction of Aβ formation/deposition in vitro and in vivo (Kim, et al., J Alzheimers Dis, 2009, 16:121-131). For additional Detail, see the attached manuscript entitled, “Inhibition of Acyl-CoA: Cholesterol Acyltransferase (ACAT), Overexpression of Cholesterol Transporter Gene, and Protection of Amyloid β (Aβ) Oligomers-Induced Neuronal Cell Death by Tricylic Pyrone Molecules” which is incorporated herein.

[1] = test system: ABCA1 cholesterol transporter gene; test: Increase of ABCA1 cholesterol transporter gene; assay type: cell-based
Text: as §1

5×FAD mice [2] = test: In vivo efficacy in 5×FAD mice; settings: 5×FAD mice
Procedure: FIGS. 6A-6E. 2-month-old 5×FAD mice were treated with TP70 or vehicle for 6 weeks as described in the text. Four cortical sections evenly distributed through the cerebrum were taken from one hemisphere of each mouse (6 mice in each treatment group) and fluorescently stained with the amyloid dye FSB (blue) and the nuclear dye propidium iodide (PI, red). A: Representative sections that show the PI stain. B: Representative sections that only show the FSB stain. C: Fluorescent staining was objectively quantified by LSC. […] E: A representative Western blot containing the soluble fractions of three mice of each group was analyzed for soluble Aβ dimer (see ref 59 for the method).
Although the mechanism of neuron loss in Alzheimer's disease (AD) remains elusive, it is associated with cerebral accumulation of Aβ42. The 5×FAD mouse model of amyloid deposition expresses five familial AD (FAD) mutations that are additive in driving Aβ42 overproduction.

5×FAD mice [3] = settings: reported in Hong, et al., J Neurochem, 2009; cited from earlier work
MC65 neuroblastoma cells = test: MC65 protection assay; assay type: cell-based; settings: protection of MC65 cells from death caused by intracellular Aβ; for EC50: read-out: effective concentrations for 50% cell survival (EC50)
Procedure: Employing medium-throughput cell-based MC65 protection assay to screen over one hundred TP compounds, seven TP compounds that protect MC65 neuroblastoma cells from death caused by intracellular Aβ have been identified. […] The EC50 values for CP2, TP70, and TP101 are 120, 80, and 70 nM, respectively.

[4] = Plasma and brain concentrations after i.v. administration in mice; assay type: in vivo
Procedure: FIGS. 3A-3B. FIG. 3A. CP2 and TP70 plasma and brain concentrations following i.v. injection in mice (n=3). FIG. 3B. […] The drug concentration was determined using HPLC and mass spectrometry.
HPLC/mass spectrometry were employed to quantify CP2 and TP70 in the plasma and brain after i.v. administration in mice. The CP2 concentration was 200-300 μM in the mouse brain between 0.5 and 2 h following 25 mg/kg i.v. administration (FIG. 3A). Similarly, TP70 concentration reached 190 μM in plasma at 5 min and 160 μM in brain at 2 h following 25 mg/Kg i.v. administration (FIGS. 3A and 3B).

[5] = log P by octanol/water partition; assay type: physicochemical

**Q.** Which IC50 (ACAT) does the source give for Cc1cc2c(c(=O)o1)C=C1CC[C@H](C(C)Cn3cnc(N)c4ncnc3-4)C[C@@H]1O2 (some centres unmarked) [CP2] here?
**A.** 1200 nM

**Q.** And the EC50 [1]?
**A.** 900 nM

**Q.** And the cerebral amyloid load (5×FAD mice [2])?
**A.** substantially reduce

**Q.** And the “drug toxicity during the course of treatment” value (5×FAD mice [2])?
**A.** no apparent drug toxicity

**Q.** What about the “histopathology, hematological counts, and blood chemistry at necropsy” value (5×FAD mice [2]) of the same compound?
**A.** No abnormalities

**Q.** And the “levels of toxic Aβ dimers” value (5×FAD mice [2])?
**A.** substantially reduce

**Q.** And the “soluble and insoluble Aβ aggregates in vivo” value (5×FAD mice [3])?
**A.** reduce soluble and insoluble Aβ aggregates in vivo

**Q.** What about the EC50 (MC65 neuroblastoma cells) of the same compound?
**A.** 120 nM

**Q.** What about the CNS penetration ([4]; i.v., mice) of the same compound?
**A.** good CNS penetration

**Q.** And the brain concentration ([4]; mouse brain, between 0.5 and 2 h, 25 mg/kg i.v.)?
**A.** 200 to 300 µM

**Q.** What about the “log P” value [5] of the same compound?
**A.** 2.20

**Q.** With CC(=O)OCCc1cc2c(c(=O)o1)C=C1CC[C@H](C(C)Cn3cnc(N)c4ncnc3-4)C[C@@H]1O2 (some centres unmarked) [TP4] as the compound, how does the “EC50 values (in words)” value (MC65 neuroblastoma cells) read?
**A.** nanomolar range

**Q.** Which “EC50 values (in words)” value (MC65 neuroblastoma cells) does the source give for Cc1cc2c(c(=O)o1)C=C1CCC(C(C)CNCc3c[nH]cn3)CC1O2 (centres unmarked) [TP36] here?
**A.** nanomolar range

**Q.** Which “EC50 values (in words)” value (MC65 neuroblastoma cells) does the source give for Cc1cc2c(c(=O)o1)C=C1CCC(C(C)CNCc3ccc(O)c4ccccc34)CC1O2 (centres unmarked) [TP54] here?
**A.** nanomolar range

**Q.** Which “EC50 values (in words)” value (MC65 neuroblastoma cells) does the source give for Cc1cc2c(c(=O)o1)C=C1CCC(C(C)CNCc3ccc(CO)cc3)CC1O2 (centres unmarked) [TP82] here?
**A.** nanomolar range

**Q.** What does the source list for Cc1cc2c(c(=O)o1)C=C1CCC(C(C)CNCc3ccc(O)c(F)c3)CC1O2 (centres unmarked) [TP101]?
**A.** EC50 values (in words) (MC65 neuroblastoma cells): nanomolar range; EC50 (MC65 neuroblastoma cells): 70 nM
